In patent US6180599A, “Pharmaceutical composition, containing medium-chain fatty acids as active ingredients, for dental caries and periodontal disease” (priority 1997, dated 2001):

Key:
[1] = test system: cariogenic plaque bacteria; assay: Inhibitory effect on extracellular polysaccharide synthesis (summary); assay type: cell-based, Streptococcus, Lactobacillus and Actinomyces; conditions: 1 mM
Protocol: (§1) In order to identify the effect by which medium-chain fatty acids inhibit plaque matrix formation, inhibitory effect and concentration of extracellular polysaccharide synthesis were determined in seven kinds of standard cariogenic plaque bacteria. Also, the inhibitory effect of extracellular polysaccharide synthesis for 20 kinds of cariogenic plaque bacteria, separated from the human oral cavity, was measured. Liquid culture media used were: Todd-Hewitt broth of Streptococcus, Lactobacilli MRS broth of Lactobacillus and Brain Heart Infusion broth of Actinomyces. 0.1 ml of bacterial (or cell) suspension (OD600 =0.5) of each bacteria was inoculated to 5.9 ml of culture media containing 1 mM of medium-chain fatty acids and 2% of glucose, and was cultured for 24^~ 48 hours in 10% CO2 incubator. After culturing, the resultant was centrifuged to precipitate at 5,000×g for 15 minutes, then soluble extracellular polysaccharide was separated and purified from the supernatant and insoluble extracellular polysaccharide from the cell pellet, and then these were quantified. So the experimental results that represent inhibitory effect of medium-chain fatty acids upon extracellular polysaccharide synthesis, are shown in table 1, 2, 3 and 4.

Lactobacillus casei = assay: Extracellular polysaccharide synthesis in plaque bacteria separated from human oral cavities; assay type: cell-based; conditions: 1 mM
Protocol: as §1

Streptococcus sobrinus = assay: as above; assay type: cell-based; conditions: isolate XX, 1 mM
Protocol: as §1

Streptococcus mutans = assay: as above; assay type: cell-based; conditions: 1 mM
Protocol: as §1

A. viscosus ATCC 15987 = assay: Inhibitory effect on extracellular polysaccharide synthesis, standard strain; assay type: cell-based; conditions: 1 mM
Protocol: as §1, with “quantified.” for “quantified. So the experimental results that represent inhibitory effect of medium-chain fatty acids upon extracellular polysaccharide synthesis, are shown in table 1, 2, 3 and 4.”

S. sanguis 10556 = assay: as above; assay type: cell-based; conditions: 1 mM
Protocol: as §1, with “quantified.” for “quantified. So the experimental results that represent inhibitory effect of medium-chain fatty acids upon extracellular polysaccharide synthesis, are shown in table 1, 2, 3 and 4.”

[2] = test system: cariogenic plaque bacteria (standard strains); assay: Inhibitory effect of acid production, standard strains; assay type: cell-based, Streptococcus, Lactobacillus and Actinomyces; conditions: for inhibitory effect of acid production (in words): 0.5-8 mM, pH 5.0 and 7.0, 24-48 hours
Protocol: In order to identify the action by which medium-chain fatty acids inhibit acid production, the inhibitory effect and concentration of acid production were determined in seven kinds of standard cariogenic plaque bacteria. Also, the inhibitory effect of acid production for 20 kinds of cariogenic plaque bacteria, separated from the human oral cavity, was assayed. Liquid culture media used were: Todd-Hewitt broth of Streptococcus, Lactobacilli MRS broth of Lactobacillus and Brain Heart Infusion broth of Actinomyces. […] The final pH of the culture medium was measured after culturing for 24^~ 48 hours in 10% CO2 incubator.

[3] = test system: cariogenic plaque bacteria (standard strains); assay: Inhibitory effect of bacterial growth, standard strains; assay type: cell-based, Streptococcus, Lactobacillus and Actinomyces
Protocol: (§2) In order to evaluate how medium-chain fatty acids influence bacterial growth of cariogenic plaque bacteria, the influence on each bacteria was evaluated after selecting seven kinds of bacterial strains as standard bacteria among cariogenic plaque bacteria. […] The results that medium-chain fatty acids have on influencing bacterial growth of cariogenic plaque bacteria is shown in FIG. 3. And the result of measuring inhibitory effect of bacterial growth of 20 kinds of cariogenic plaque bacteria separated from the human oral cavities is shown in FIG. 4.

[4] = test system: cariogenic plaque bacteria separated from human oral cavities; assay: Inhibitory effect of bacterial growth, bacteria separated from human oral cavities; assay type: cell-based; conditions: 1 mM lauric acid as salt form; neutral and acidic pH; FIG. 4
Protocol: as §2

[5] = test system: cariogenic plaque bacteria separated from human oral cavities; assay: Extracellular polysaccharide synthesis, 20 kinds of bacteria separated from human oral cavities (summary); assay type: cell-based; conditions: 1 mM
Protocol: as §1

L. casei ATCC 27216 = assay: Inhibitory effect on extracellular polysaccharide synthesis, standard strain; assay type: cell-based, Lactobacillus casei; conditions: 1 mM
Protocol: as §1, with “quantified.” for “quantified. So the experimental results that represent inhibitory effect of medium-chain fatty acids upon extracellular polysaccharide synthesis, are shown in table 1, 2, 3 and 4.”

L. casei ATCC 4646 = assay: as above; assay type: cell-based, Lactobacillus casei; conditions: 1 mM
Protocol: as §1, with “quantified.” for “quantified. So the experimental results that represent inhibitory effect of medium-chain fatty acids upon extracellular polysaccharide synthesis, are shown in table 1, 2, 3 and 4.”

[6] = Extracellular polysaccharide in liquid medium with fatty acid, no bacteria
Protocol: as §1, with “quantified.” for “quantified. So the experimental results that represent inhibitory effect of medium-chain fatty acids upon extracellular polysaccharide synthesis, are shown in table 1, 2, 3 and 4.”

With `CCCCCCCCCCCC(=O)[O-].[Na+]` [C12, sodium laurate] the “inhibitory effect of extracellular polysaccharide synthesis (in words)” value [1] was “inhibited in the highest degree”, the “inhibitory effect of extracellular polysaccharide synthesis, sequence” value ([1]; ranking) was “sodium laurate>sodium capriate>sodium nonanoate” and the Inhibitory rate (Lactobacillus casei; isolate I) was 76%. It also gave a Soluble extracellular polysaccharide (Lactobacillus casei; isolate I, control 105.1 ± 7.2) of 25.1 ± 1.7 µg/mL, an Inhibitory rate (Lactobacillus casei; isolate II) of 71% and a Soluble extracellular polysaccharide (Lactobacillus casei; isolate II, control 121.4 ± 27.1) of 35.0 ± 2.9 µg/mL. It also gave an Inhibitory rate (Lactobacillus casei; isolate III) of 75%, a Soluble extracellular polysaccharide (Lactobacillus casei; isolate III, control 140.4 ± 4.9) of 34.7 ± 0.9 µg/mL and an Inhibitory rate (Lactobacillus casei; isolate IV) of 74%. For the same compound, the Soluble extracellular polysaccharide (Lactobacillus casei; isolate IV, control 151.4 ± 7.6) was 38.8 ± 4.1 µg/mL, the Inhibitory rate (Lactobacillus casei; isolate IX) was 79% and the Soluble extracellular polysaccharide (Lactobacillus casei; isolate IX, control 214.6 ± 18.8) was 46.1 ± 3.0 µg/mL. The Inhibitory rate (Lactobacillus casei; isolate V) was 73%, the Soluble extracellular polysaccharide (Lactobacillus casei; isolate V, control 137.4 ± 21.8) was 36.6 ± 4.3 µg/mL and the Inhibitory rate (Lactobacillus casei; isolate VI) was 74%. For the same compound, the Soluble extracellular polysaccharide (Lactobacillus casei; isolate VI, control 184.6 ± 6.5) was 48.5 ± 2.7 µg/mL, the Inhibitory rate (Lactobacillus casei; isolate VII) was 70% and the Soluble extracellular polysaccharide (Lactobacillus casei; isolate VII, control 149.9 ± 16.8) was 44.7 ± 3.1 µg/mL. It also gave an Inhibitory rate (Lactobacillus casei; isolate VIII) of 72%, a Soluble extracellular polysaccharide (Lactobacillus casei; isolate VIII, control 221.6 ± 20.1) of 62.6 ± 3.4 µg/mL and an Inhibitory rate (Lactobacillus casei; isolate X) of 72%. For the same compound, the Soluble extracellular polysaccharide (Lactobacillus casei; isolate X, control 201.7 ± 36.1) was 56.3 ± 8.2 µg/mL, the Inhibitory rate (Streptococcus sobrinus) was 79% and the Soluble extracellular polysaccharide (Streptococcus sobrinus; control 116.0 ± 17.2) was 24.0 ± 1.5 µg/mL. It also gave an Inhibitory rate (Streptococcus mutans; isolate XI) of 70%, a Soluble extracellular polysaccharide (Streptococcus mutans; isolate XI, control 95.2 ± 8.3) of 28.6 ± 3.5 µg/mL and an Inhibitory rate (Streptococcus mutans; isolate XII) of 58%. It also gave a Soluble extracellular polysaccharide (Streptococcus mutans; isolate XII, control 84.2 ± 8.6) of 35.2 ± 5.0 µg/mL, an Inhibitory rate (Streptococcus mutans; isolate XIII) of 69% and a Soluble extracellular polysaccharide (Streptococcus mutans; isolate XIII, control 90.5 ± 8.3) of 27.7 ± 3.3 µg/mL. It also gave an Inhibitory rate (Streptococcus mutans; isolate XIV) of 53%, a Soluble extracellular polysaccharide (Streptococcus mutans; isolate XIV, control 90.5 ± 2.9) of 42.6 ± 1.0 µg/mL and an Inhibitory rate (Streptococcus mutans; isolate XIX) of 70%. The Soluble extracellular polysaccharide (Streptococcus mutans; isolate XIX, control 113.7 ± 6.8) was 34.3 ± 3.3 µg/mL, the Inhibitory rate (Streptococcus mutans; isolate XV) was 62% and the Soluble extracellular polysaccharide (Streptococcus mutans; isolate XV, control 117.9 ± 4.6) was 44.5 ± 1.7 µg/mL. It also gave an Inhibitory rate (Streptococcus mutans; isolate XVI) of 66%, a Soluble extracellular polysaccharide (Streptococcus mutans; isolate XVI, control 143.2 ± 11.1) of 48.2 ± 4.5 µg/mL and an Inhibitory rate (Streptococcus mutans; isolate XVII) of 67%. It also gave a Soluble extracellular polysaccharide (Streptococcus mutans; isolate XVII, control 107.8 ± 17.0) of 35.4 ± 2.1 µg/mL, an Inhibitory rate (Streptococcus mutans; isolate XVIII) of 59% and a Soluble extracellular polysaccharide (Streptococcus mutans; isolate XVIII, control 98.5 ± 9.0) of 40.5 ± 1.7 µg/mL. For the same compound, the “Extracellular polysaccharide, insoluble” value (A. viscosus ATCC 15987; 2% glucose, 24-48 hours, control 2.1 ± 0.2) was 0.2 ± 0.1 µg/mL, the “Extracellular polysaccharide, soluble” value (A. viscosus ATCC 15987; 2% glucose, 24-48 hours, control 222.8 ± 3.3) was 25.3 ± 1.7 µg/mL and the “Inhibitory rate, soluble” value (A. viscosus ATCC 15987; vs control) was 89%. The “Extracellular polysaccharide, soluble” value (S. sanguis 10556; 2% glucose, 24-48 hours, control 25.9 ± 4.3) was 12.2 ± 0.9 µg/mL, the “Inhibitory rate, soluble” value (S. sanguis 10556; vs control) was 53% and the “inhibitory effect of acid production (in words)” value [2] was “excellent inhibitory effect of acid production even at low concentration of 1 mM”. The “inhibitory effect of acid production (in words)” value ([2]; listed as salt form of lauric acid) was “almost completely inhibits the acid production ability”, the “inhibitory effect of acid production in acidic conditions (in words)” value ([2]; acidic conditions, FIG. 1) was “significant effect of acid production in acidic conditions” and the “inhibitory effect of acid production, sequence” value ([2]; ranking, FIG. 1) was “sodium laurate>sodium capriate>sodium nonanoate”. For the same compound, the “inhibitory effect of bacterial growth (in words)” value ([3]; 0.5-8 mM, pH 5.0 and 7.0, OD 600 nm, 24-48 hours) was “almost completely inhibits”, the “inhibitory effect of bacterial growth, sequence” value ([3]; ranking, FIG. 3) was “sodium laurate>sodium capriate>sodium nonanoate” and the “inhibition of bacterial growth (in words)” value [4] was “more remarkable effects even at low concentration than that of the control group”. For the same compound, the “inhibition of soluble extracellular polysaccharide synthesis (in words)” value [5] was “noticeably inhibits soluble extracellular polysaccharide synthesis”, the “Extracellular polysaccharide, insoluble” value (L. casei ATCC 27216; 2% glucose, 24-48 hours, control 5.9 ± 0.4) was 2.0 ± 0.1 µg/mL and the “Extracellular polysaccharide, soluble” value (L. casei ATCC 27216; 2% glucose, 24-48 hours, control 67.3 ± 4.5) was 19.0 ± 2.1 µg/mL. The “Inhibitory rate, soluble” value (L. casei ATCC 27216; vs control) was 72%, the “Extracellular polysaccharide, insoluble” value (L. casei ATCC 4646; 2% glucose, 24-48 hours, control 5.3 ± 0.5) was 0.2 ± 0.2 µg/mL and the “Extracellular polysaccharide, soluble” value (L. casei ATCC 4646; 2% glucose, 24-48 hours, control 43.6 ± 7.0) was 19.2 ± 2.9 µg/mL. For the same compound, the “Inhibitory rate, soluble” value (L. casei ATCC 4646; vs control) was 56%, the “Extracellular polysaccharide, soluble” value ([6]; Table 1, 1 mM) was 1.4 ± 0.1 µg/mL and the “Extracellular polysaccharide, soluble” value ([6]; Table 2, 1 mM) was 4.6 ± 1.3 µg/mL. For the same compound, the “Extracellular polysaccharide, soluble” value ([6]; Table 3, 1 mM) was 4.4 ± 0.2 µg/mL.
